What follows are molecules tested against T1, Melanocortin receptor 3 (Homo sapiens, UniProt P41968) (assay: Inhibition of [125I]-NDP- alpha-MSH binding to human melanocortin 3 receptor expressed in CHO cells). Conditions: not given.
Format: cell-based

T1 sequence (P41968 whole entry): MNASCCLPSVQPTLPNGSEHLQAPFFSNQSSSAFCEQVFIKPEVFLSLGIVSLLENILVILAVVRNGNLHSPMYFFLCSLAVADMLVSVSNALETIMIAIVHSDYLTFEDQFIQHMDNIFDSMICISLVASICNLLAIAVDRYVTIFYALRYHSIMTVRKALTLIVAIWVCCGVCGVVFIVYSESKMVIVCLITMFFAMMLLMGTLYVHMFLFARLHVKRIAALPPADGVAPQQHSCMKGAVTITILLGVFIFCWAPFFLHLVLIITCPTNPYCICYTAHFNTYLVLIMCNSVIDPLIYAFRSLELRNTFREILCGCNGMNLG

IC50 | SMILES
> 3000 nM | COc1ccc(-n2nc(Sc3ccc(Cl)cc3)cc(CC[C@@H](C)NC(=O)[C@H]3CNC[C@@H]3c3ccc(F)cc3)c2=O)cc1
940 nM | COc1ccc(-n2nc(Sc3ccc(Cl)cc3)cc(CC[C@@H](C)NC(=O)[C@H]3CNCC[C@@H]3c3ccc(F)cc3)c2=O)cc1

What follows are molecules tested against T2, Melanocyte-stimulating hormone receptor (Homo sapiens, UniProt Q01726) (assay: Effective concentration against human melanocortin 1 receptor in cAMP release assay). Conditions: not given.
Format: functional
Target sequence in this assay (Q01726 whole entry): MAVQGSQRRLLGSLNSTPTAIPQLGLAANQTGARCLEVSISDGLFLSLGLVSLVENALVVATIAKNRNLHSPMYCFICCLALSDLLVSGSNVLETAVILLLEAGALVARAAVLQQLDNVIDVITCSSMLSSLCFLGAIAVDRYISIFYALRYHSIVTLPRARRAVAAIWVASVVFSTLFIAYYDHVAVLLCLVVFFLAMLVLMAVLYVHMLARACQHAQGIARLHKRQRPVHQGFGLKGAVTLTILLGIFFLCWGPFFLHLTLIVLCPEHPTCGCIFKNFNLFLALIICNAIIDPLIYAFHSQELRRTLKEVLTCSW

EC50 | SMILES
220 nM | COc1ccc(N2N=C(Sc3ccc(Cl)cc3)CC(CC[C@@H](C)NC(=O)[C@H]3CCNC[C@@H]3c3ccc(F)cc3)C2=O)cc1 (stereo in doubt; 63)
240 nM | COc1ccc(N2N=C(Sc3ccc(Cl)cc3)CC(CC[C@@H](C)NC(=O)C3CNC[C@@H]3c3ccc(F)cc3)C2=O)cc1 (single isomer, unassigned; 67) [listing 1 of 2 here]

These molecules were tested against T3, Melanocortin receptor 5 (Homo sapiens, UniProt P33032) (assay: Effective concentration against human melanocortin 5 receptor in cAMP release assay). Conditions: not given.
T3 sequence (P33032 whole entry): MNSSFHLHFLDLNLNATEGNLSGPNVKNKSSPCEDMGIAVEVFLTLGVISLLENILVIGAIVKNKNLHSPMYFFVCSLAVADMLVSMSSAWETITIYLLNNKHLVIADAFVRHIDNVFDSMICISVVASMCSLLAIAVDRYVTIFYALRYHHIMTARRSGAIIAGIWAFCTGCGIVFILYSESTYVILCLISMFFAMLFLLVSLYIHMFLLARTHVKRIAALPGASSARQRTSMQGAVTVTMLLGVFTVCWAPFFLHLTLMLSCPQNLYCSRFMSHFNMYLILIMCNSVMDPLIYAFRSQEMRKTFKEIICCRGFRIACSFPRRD
Format: functional

EC50 | SMILES
2400 nM | COc1ccc(N2N=C(Sc3ccc(Cl)cc3)CC(CC[C@@H](C)NC(=O)[C@H]3CNCC[C@@H]3c3ccc(F)cc3)C2=O)cc1 (stereo in doubt; 26) [listing 1 of 2 here]

Each molecule was assayed against T3, Melanocortin receptor 5 (assay: Inhibition of [125I]-NDP- alpha-MSH binding to human melanocortin 5 receptor expressed in CHO cells). Conditions: not given.
Format: cell-based

IC50 | SMILES
1400 nM | COc1ccc(-n2nc(Sc3ccc(Cl)cc3)cc(CC[C@@H](C)NC(=O)[C@H]3CNC[C@@H]3c3ccc(F)cc3)c2=O)cc1
1200 nM | COc1ccc(-n2nc(Sc3ccc(Cl)cc3)cc(CC[C@@H](C)NC(=O)[C@H]3CCNC[C@@H]3c3ccc(F)cc3)c2=O)cc1
840 nM | COc1ccc(-n2nc(Sc3ccc(Cl)cc3)cc(CC[C@@H](C)NC(=O)[C@H]3CNCC[C@@H]3c3ccc(F)cc3)c2=O)cc1

What follows are molecules tested against T1, Melanocortin receptor 3 (assay: Inhibition of [125I]-NDP- alpha-MSH binding to human melanocortin 3 receptor). Conditions: not given.

IC50 | SMILES
4700 nM | COc1ccc(N2N=C(Sc3ccc(Cl)cc3)CC(CC[C@@H](C)NC(=O)[C@H]3CCNC[C@@H]3c3ccc(F)cc3)C2=O)cc1 (stereo in doubt; 63)
1600 nM | COc1ccc(N2N=C(Sc3ccc(Cl)cc3)CC(CC[C@@H](C)NC(=O)C3CNC[C@@H]3c3ccc(F)cc3)C2=O)cc1 (single isomer, unassigned; 67) [listing 1 of 2 here]
420 nM | COc1ccc(N2N=C(Sc3ccc(Cl)cc3)CC(CC[C@@H](C)NC(=O)[C@H]3CNCC[C@@H]3c3ccc(F)cc3)C2=O)cc1 (stereo in doubt; 26) [listing 1 of 2 here]

The molecules below were run against T1, Melanocortin receptor 3 (assay: Maximum percentage of cAMP accumulation compared to alpha-MSH at human melanocortin 3 receptor at 10 uM). Conditions: not given.
Format: functional

Max | SMILES
10% | COc1ccc(N2N=C(Sc3ccc(Cl)cc3)CC(CC[C@@H](C)NC(=O)C3CNC[C@@H]3c3ccc(F)cc3)C2=O)cc1 (single isomer, unassigned; 67) [listing 2 of 2 here]
5% | COc1ccc(N2N=C(Sc3ccc(Cl)cc3)CC(CC[C@@H](C)NC(=O)[C@H]3CNCC[C@@H]3c3ccc(F)cc3)C2=O)cc1 (stereo in doubt; 26) [listing 2 of 2 here]
45% | COc1ccc(-n2nc(Sc3ccc(Cl)cc3)cc(CC[C@@H](C)NC(=O)[C@H]3CCNC[C@@H]3c3ccc(F)cc3)c2=O)cc1
6% | COc1ccc(-n2nc(Sc3ccc(Cl)cc3)cc(CC[C@@H](C)NC(=O)[C@H]3CNCC[C@@H]3c3ccc(F)cc3)c2=O)cc1

Each molecule was assayed against T4, Melanocortin receptor 4 (Homo sapiens, UniProt P32245) (assay: Effective concentration at human melanocortin 4 receptor in cAMP release assay). Conditions: not given.
T4 sequence (P32245 whole entry): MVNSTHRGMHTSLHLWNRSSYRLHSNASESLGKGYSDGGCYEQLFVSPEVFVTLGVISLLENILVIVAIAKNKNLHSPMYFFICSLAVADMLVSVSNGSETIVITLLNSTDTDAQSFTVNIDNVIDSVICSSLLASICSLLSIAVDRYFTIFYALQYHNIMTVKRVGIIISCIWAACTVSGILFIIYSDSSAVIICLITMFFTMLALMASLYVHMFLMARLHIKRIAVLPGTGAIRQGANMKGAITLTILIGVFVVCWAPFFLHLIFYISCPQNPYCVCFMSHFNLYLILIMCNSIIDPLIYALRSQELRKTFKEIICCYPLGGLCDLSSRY
Format: functional

EC50 | SMILES
110 nM | COc1ccc(-n2nc(Sc3ccc(Cl)cc3)cc(CC[C@@H](C)NC(=O)[C@H]3CNC[C@@H]3c3ccc(F)cc3)c2=O)cc1
30 nM | COc1ccc(N2N=C(Sc3ccc(Cl)cc3)CC(CC[C@@H](C)NC(=O)[C@H]3CCNC[C@@H]3c3ccc(F)cc3)C2=O)cc1 (stereo in doubt; 63)
66 nM | COc1ccc(N2N=C(Sc3ccc(Cl)cc3)CC(CC[C@@H](C)NC(=O)C3CNC[C@@H]3c3ccc(F)cc3)C2=O)cc1 (single isomer, unassigned; 67) [listing 1 of 2 here]
40 nM | COc1ccc(N2N=C(Sc3ccc(Cl)cc3)CC(CC[C@@H](C)NC(=O)[C@H]3CNCC[C@@H]3c3ccc(F)cc3)C2=O)cc1 (stereo in doubt; 26) [listing 1 of 2 here]
110 nM | COc1ccc(-n2nc(Sc3ccc(Cl)cc3)cc(CC[C@@H](C)NC(=O)[C@H]3CCNC[C@@H]3c3ccc(F)cc3)c2=O)cc1
61 nM | COc1ccc(-n2nc(Sc3ccc(Cl)cc3)cc(CC[C@@H](C)NC(=O)[C@H]3CNCC[C@@H]3c3ccc(F)cc3)c2=O)cc1

What follows are molecules tested against T1, Melanocortin receptor 3 (assay: Maximum percentage of cAMP accumulation compared to alpha-MSH at human melanocortin 3 receptor). Conditions: not given.
Format: functional

Max | SMILES
24% | COc1ccc(-n2nc(Sc3ccc(Cl)cc3)cc(CC[C@@H](C)NC(=O)[C@H]3CNC[C@@H]3c3ccc(F)cc3)c2=O)cc1

The molecules below were run against T4, Melanocortin receptor 4 (assay: Inhibition of [125I]-NDP- alpha-MSH binding to human melanocortin 4 receptor expressed in CHO cells). Conditions: not given.
Format: cell-based

IC50 | SMILES
70 nM | COc1ccc(-n2nc(Sc3ccc(Cl)cc3)cc(CC[C@@H](C)NC(=O)[C@H]3CNC[C@@H]3c3ccc(F)cc3)c2=O)cc1
22 nM | COc1ccc(N2N=C(Sc3ccc(Cl)cc3)CC(CC[C@@H](C)NC(=O)[C@H]3CCNC[C@@H]3c3ccc(F)cc3)C2=O)cc1 (stereo in doubt; 63)
18 nM | COc1ccc(N2N=C(Sc3ccc(Cl)cc3)CC(CC[C@@H](C)NC(=O)C3CNC[C@@H]3c3ccc(F)cc3)C2=O)cc1 (single isomer, unassigned; 67) [listing 1 of 2 here]
1.5 nM | COc1ccc(N2N=C(Sc3ccc(Cl)cc3)CC(CC[C@@H](C)NC(=O)[C@H]3CNCC[C@@H]3c3ccc(F)cc3)C2=O)cc1 (stereo in doubt; 26) [listing 1 of 2 here]
66 nM | COc1ccc(-n2nc(Sc3ccc(Cl)cc3)cc(CC[C@@H](C)NC(=O)[C@H]3CCNC[C@@H]3c3ccc(F)cc3)c2=O)cc1
11 nM | COc1ccc(-n2nc(Sc3ccc(Cl)cc3)cc(CC[C@@H](C)NC(=O)[C@H]3CNCC[C@@H]3c3ccc(F)cc3)c2=O)cc1

Each molecule was assayed against T2, Melanocyte-stimulating hormone receptor (assay: Inhibition of [125I]-NDP- alpha-MSH binding to human melanocortin 1 receptor). Conditions: not given.
Target sequence in this assay (Q01726 whole entry): as the sequence (Q01726 whole entry) above

IC50 | SMILES
1100 nM | COc1ccc(N2N=C(Sc3ccc(Cl)cc3)CC(CC[C@@H](C)NC(=O)[C@H]3CCNC[C@@H]3c3ccc(F)cc3)C2=O)cc1 (stereo in doubt; 63)
290 nM | COc1ccc(N2N=C(Sc3ccc(Cl)cc3)CC(CC[C@@H](C)NC(=O)C3CNC[C@@H]3c3ccc(F)cc3)C2=O)cc1 (single isomer, unassigned; 67) [listing 1 of 2 here]
230 nM | COc1ccc(N2N=C(Sc3ccc(Cl)cc3)CC(CC[C@@H](C)NC(=O)[C@H]3CNCC[C@@H]3c3ccc(F)cc3)C2=O)cc1 (stereo in doubt; 26) [listing 1 of 2 here]

Each molecule was assayed against T1, Melanocortin receptor 3 (assay: Inhibition of [125I]-NDP- alpha-MSH binding to human melanocortin 3 receptor expressed in CHO cell at 4 uM). Conditions: not given.
Format: cell-based

inhibition | SMILES
40% | COc1ccc(-n2nc(Sc3ccc(Cl)cc3)cc(CC[C@@H](C)NC(=O)[C@H]3CCNC[C@@H]3c3ccc(F)cc3)c2=O)cc1

What follows are molecules tested against T3, Melanocortin receptor 5 (assay: Inhibition of [125I]-NDP- alpha-MSH binding to human melanocortin 5 receptor). Conditions: not given.

IC50 | SMILES
3100 nM | COc1ccc(N2N=C(Sc3ccc(Cl)cc3)CC(CC[C@@H](C)NC(=O)[C@H]3CCNC[C@@H]3c3ccc(F)cc3)C2=O)cc1 (stereo in doubt; 63)
690 nM | COc1ccc(N2N=C(Sc3ccc(Cl)cc3)CC(CC[C@@H](C)NC(=O)C3CNC[C@@H]3c3ccc(F)cc3)C2=O)cc1 (single isomer, unassigned; 67) [listing 1 of 2 here]
1100 nM | COc1ccc(N2N=C(Sc3ccc(Cl)cc3)CC(CC[C@@H](C)NC(=O)[C@H]3CNCC[C@@H]3c3ccc(F)cc3)C2=O)cc1 (stereo in doubt; 26) [listing 1 of 2 here]

What follows are molecules tested against T3, Melanocortin receptor 5 (assay: Maximum percentage of cAMP accumulation compared to alpha-MSH at human melanocortin 5 receptor at 10 uM). Conditions: not given.
Format: functional

Max | SMILES
5% | COc1ccc(-n2nc(Sc3ccc(Cl)cc3)cc(CC[C@@H](C)NC(=O)[C@H]3CNC[C@@H]3c3ccc(F)cc3)c2=O)cc1
5% | COc1ccc(N2N=C(Sc3ccc(Cl)cc3)CC(CC[C@@H](C)NC(=O)C3CNC[C@@H]3c3ccc(F)cc3)C2=O)cc1 (single isomer, unassigned; 67) [listing 2 of 2 here]
1% | COc1ccc(-n2nc(Sc3ccc(Cl)cc3)cc(CC[C@@H](C)NC(=O)[C@H]3CCNC[C@@H]3c3ccc(F)cc3)c2=O)cc1
7% | COc1ccc(-n2nc(Sc3ccc(Cl)cc3)cc(CC[C@@H](C)NC(=O)[C@H]3CNCC[C@@H]3c3ccc(F)cc3)c2=O)cc1

These molecules were tested against T3, Melanocortin receptor 5 (assay: Maximum percentage of cAMP accumulation compared to alpha-MSH at human melanocortin 5 receptor). Conditions: not given.
Format: functional

Max | SMILES
27% | COc1ccc(N2N=C(Sc3ccc(Cl)cc3)CC(CC[C@@H](C)NC(=O)[C@H]3CNCC[C@@H]3c3ccc(F)cc3)C2=O)cc1 (stereo in doubt; 26) [listing 2 of 2 here]

Each molecule was assayed against T2, Melanocyte-stimulating hormone receptor. Conditions: 10 uM.
Target sequence in this assay (Q01726 whole entry, looked up): as the sequence (Q01726 whole entry) above
Description: Maximum percentage of cAMP accumulation compared to alpha-MSH at human melanocortin 1 receptor at 10 uM

Max | SMILES
12% | COc1ccc(N2N=C(Sc3ccc(Cl)cc3)CC(CC[C@@H](C)NC(=O)[C@H]3CNCC[C@@H]3c3ccc(F)cc3)C2=O)cc1 (stereo in doubt; 26) [listing 2 of 2 here]

Each molecule was assayed against T1, Melanocortin receptor 3 (assay: Effective concentration against human melanocortin 3 receptor in cAMP release assay). Conditions: not given.
Format: functional

EC50 | SMILES
2400 nM | COc1ccc(-n2nc(Sc3ccc(Cl)cc3)cc(CC[C@@H](C)NC(=O)[C@H]3CNC[C@@H]3c3ccc(F)cc3)c2=O)cc1
1100 nM | COc1ccc(N2N=C(Sc3ccc(Cl)cc3)CC(CC[C@@H](C)NC(=O)[C@H]3CCNC[C@@H]3c3ccc(F)cc3)C2=O)cc1 (stereo in doubt; 63)

The molecules below were run against T4, Melanocortin receptor 4 (assay: Inhibition of [125I]-NDP- alpha-MSH binding to human melanocortin 4 receptor). Conditions: not given.

IC50 | SMILES
22 nM | COc1ccc(N2N=C(Sc3ccc(Cl)cc3)CC(CC[C@@H](C)NC(=O)[C@H]3CCNC[C@@H]3c3ccc(F)cc3)C2=O)cc1 (stereo in doubt; 63)
1.5 nM | COc1ccc(N2N=C(Sc3ccc(Cl)cc3)CC(CC[C@@H](C)NC(=O)[C@H]3CNCC[C@@H]3c3ccc(F)cc3)C2=O)cc1 (stereo in doubt; 26) [listing 1 of 2 here]

The molecules below were run against T4, Melanocortin receptor 4 (assay: Maximum percentage of cAMP accumulation relative to alpha-MSH at human melanocortin 4 receptor at 10 uM). Conditions: not given.
Format: functional

Max | SMILES
84% | COc1ccc(-n2nc(Sc3ccc(Cl)cc3)cc(CC[C@@H](C)NC(=O)[C@H]3CNC[C@@H]3c3ccc(F)cc3)c2=O)cc1
90% | COc1ccc(N2N=C(Sc3ccc(Cl)cc3)CC(CC[C@@H](C)NC(=O)C3CNC[C@@H]3c3ccc(F)cc3)C2=O)cc1 (single isomer, unassigned; 67) [listing 2 of 2 here]
67% | COc1ccc(N2N=C(Sc3ccc(Cl)cc3)CC(CC[C@@H](C)NC(=O)[C@H]3CNCC[C@@H]3c3ccc(F)cc3)C2=O)cc1 (stereo in doubt; 26) [listing 2 of 2 here]
101% | COc1ccc(-n2nc(Sc3ccc(Cl)cc3)cc(CC[C@@H](C)NC(=O)[C@H]3CCNC[C@@H]3c3ccc(F)cc3)c2=O)cc1
71% | COc1ccc(-n2nc(Sc3ccc(Cl)cc3)cc(CC[C@@H](C)NC(=O)[C@H]3CNCC[C@@H]3c3ccc(F)cc3)c2=O)cc1

— ChEMBL document CHEMBL1142811, “Design and syntheses of melanocortin subtype-4 receptor agonists. Part 2: discovery of the dihydropyridazinone motif” (Bioorg Med Chem Lett, 2005)
